Data on 65 molecules can be found in patent US20110172217A1, “RING-FUSED MORPHOLINE DERIVATIVE HAVING PI3K-INHIBITING ACTIVITY” (Shionogi & Co., Ltd., priority 2008, published 2011).

Molecules are shown by their SMILES.

In this experiment the target is PI-3 kinase γ (Homo sapiens, UniProt P48736). Kind of experiment: PI3Kγ inhibitory activity, PI3-kinase HTRF assay (inhibition ratio). Format: biochemical. The settings on record: 0.5 h, compound at 50 μmol/L. As for the experimental part: For each compound synthesized in the above Examples, PI3Kγ inhibitory activity was measured.
Sequence of PI-3 kinase γ (P48736 whole entry): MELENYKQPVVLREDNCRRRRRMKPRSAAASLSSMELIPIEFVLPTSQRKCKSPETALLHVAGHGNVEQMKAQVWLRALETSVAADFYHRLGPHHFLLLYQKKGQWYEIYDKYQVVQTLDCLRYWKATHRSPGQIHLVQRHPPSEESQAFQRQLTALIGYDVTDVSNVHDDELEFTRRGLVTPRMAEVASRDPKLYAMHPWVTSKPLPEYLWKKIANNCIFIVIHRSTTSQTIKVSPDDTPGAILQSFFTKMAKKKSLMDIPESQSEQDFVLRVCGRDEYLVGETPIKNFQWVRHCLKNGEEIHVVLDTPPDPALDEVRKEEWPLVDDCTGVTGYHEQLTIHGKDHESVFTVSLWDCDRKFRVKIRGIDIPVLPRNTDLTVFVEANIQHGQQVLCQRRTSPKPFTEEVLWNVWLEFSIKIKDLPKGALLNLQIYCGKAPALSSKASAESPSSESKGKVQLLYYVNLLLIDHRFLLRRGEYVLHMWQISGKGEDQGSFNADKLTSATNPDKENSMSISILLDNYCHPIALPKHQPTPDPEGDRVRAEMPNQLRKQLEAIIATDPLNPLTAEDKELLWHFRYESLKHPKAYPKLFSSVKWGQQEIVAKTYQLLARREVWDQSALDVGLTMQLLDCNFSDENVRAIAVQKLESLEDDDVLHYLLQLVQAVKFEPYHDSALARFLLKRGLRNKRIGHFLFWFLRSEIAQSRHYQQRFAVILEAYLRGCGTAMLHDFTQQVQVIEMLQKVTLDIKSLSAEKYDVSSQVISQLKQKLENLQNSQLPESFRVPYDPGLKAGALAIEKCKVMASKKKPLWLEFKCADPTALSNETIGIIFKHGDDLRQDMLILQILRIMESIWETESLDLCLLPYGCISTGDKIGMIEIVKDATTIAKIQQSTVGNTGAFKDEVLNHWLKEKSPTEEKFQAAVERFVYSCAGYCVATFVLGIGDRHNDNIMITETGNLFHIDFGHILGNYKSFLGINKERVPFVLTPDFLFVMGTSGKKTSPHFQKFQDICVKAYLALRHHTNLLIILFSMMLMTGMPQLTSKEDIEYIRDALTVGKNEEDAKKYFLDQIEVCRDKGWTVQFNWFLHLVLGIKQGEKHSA
The PI3Kγ inhibitory activity of a compound was evaluated using PI3-kinase HTRF™ assay (Millipore) according to the following procedure:
To each well of a testing plate, 5 μL of a compound solution containing 10% DMSO (200 μmol/L or 40 μmol/L as the concentration of the compound), 5 μL of a substrate solution (40 μmol/L phosphatidylinositol (4,5)-bisphosphate, 20 mmol/L MgCl2, 10 mmol/L DTT), and 5 μL of a enzyme solution (80 μg/mL PI-3 kinase γ, 10 mmol/L MgCl2, 5 mmol/L DTT) were added, and then allowed to stand for 10 minutes.
Then, 5 μL of a reaction solution (40 μmol/L ATP, 10 mmol/L MgCl2, 5 mmol/L DTT) was added thereto. After reacting for 30 minutes at room temperature, 5 μL of a solution containing EDTA and biotinylated phosphatidylinositol (3,4,5)-triphosphate were added to quench the reaction.
5 μL of a detection reagent containing a europium-labeled anti-GST antibody, the GST-tagged PH domain, and allophycocyanin-labeled streptavidin was added thereto. After 18 hours, HTRF (excitation wavelength: 330 nm, measured wavelengths: 620 nm and 665 nm) was measured.
HTRF ratio was defined as the value obtained by dividing the amount of fluorescence obtained at the measured wavelength 665 nm by the amount of fluorescence obtained at 620 nm. The HTRF ratio in the absence of a compound was defined as 100% activity and the HTRF ratio in the absence of PI-3 kinase γ was defined as 0% activity to calculate an inhibition ratio which was defined as the PI3Kγ inhibitory activity of a compound at 50 μmol/L or 10 μmol/L.
(In general: In TR-FRET formats the signal depends on donor and acceptor labels being close together.)
For orientation: inhibition means the share of the control response that was lost under treatment. With `O=C(O)COc1ccc(Nc2cnc3c(c2)OCCN3C(=O)Nc2ccccc2)cc1` [Compound I-252], the inhibition at 50 µM was at least 95%. Then `O=C(O)COc1ccc(Nc2ccc3c(n2)N(C(=O)Nc2ccccc2)CCO3)cc1` [Compound I-224], with at least 95%; and `COC(=O)c1ccccc1Nc1ccc2c(n1)N(C(=O)Nc1ccccc1)CCO2` [Compound I-141], with 82%.

For `O=C(Nc1ccccc1)N1CCOc2cc(Nc3ccc4c(c3)CCO4)cnc21` [Compound I-320], the inhibition at 50 µM is 95%.

Consider `COCOc1ccc(C(=O)OC)cc1Nc1ccc2c(n1)N(C(=O)Nc1ccccc1)CCO2` [Compound I-179], for which the inhibition at 50 µM worked out at 79%. With `CN1CCOc2cc(-c3ccc4c(n3)N(C(=O)Nc3ccccc3)CCO4)ccc21` [Compound I-77], the inhibition at 50 µM came out at 82%. In the case of `COc1ccc2cc(-c3cnc4c(c3)OCCN4C(=O)Nc3ccccc3)[nH]c2c1` [Compound I-302], the inhibition at 50 µM came to 87%. As for `CCOC(=O)N1CCC(NC(=O)N2CCOc3ccc(-c4ccc(C(=O)O)cc4)nc32)CC1` [Compound I-203], the inhibition at 50 µM is at least 95%. With `CC(C)(C)OC(=O)CC(=O)Nc1cnc2c(c1)OCCN2C(=O)Nc1ccccc1` [Compound I-160] the figure was 75%; with `CC(C)(C)OC(=O)NCCOc1ccccc1Nc1ccc2c(n1)N(C(=O)Nc1ccccc1)CCO2` [Compound I-215], at least 95%. With `O=C(Nc1ccccc1)N1CCOc2ccc(-c3ccncc3)nc21` [Compound I-107], the inhibition at 50 µM was at least 95%. As to `COc1cccc(NC(=O)N2CCOc3ccc(Nc4ccc(C(=O)O)cc4)nc32)c1` [Compound I-211], the inhibition at 50 µM was at least 95%. Then `Cc1cc(C(=O)O)ccc1-c1ccc2c(n1)N(C(=O)Nc1ccccc1)CCO2` [Compound I-230], with at least 95%; and `CC(C)(C)NC(=O)c1ccccc1Nc1cnc2c(c1)OCCN2C(=O)Nc1ccccc1` [Compound I-315], with 93%; and `O=C(Nc1ccccc1)N1CCOc2ccc(-c3ccn[nH]3)nc21` [Compound I-187], with at least 95%. Turning to `O=C(Nc1ccccc1)N1CCOc2cc(Nc3ccccc3)cnc21` [Compound I-132], the inhibition at 50 µM worked out at 83%. For the molecule `CC(C)(C)OC(=O)COc1cccc(Nc2cnc3c(c2)OCCN3C(=O)Nc2ccccc2)c1` [Compound I-234], the inhibition at 50 µM was at least 95%.

Consider `CC(C)(C)OC(=O)N1CCN(c2cnc3c(c2)OCCN3C(=O)Nc2ccccc2)CC1C(=O)O` (centres unmarked) [Compound I-245], for which the inhibition at 50 µM was at least 95%. Take `Cc1n[nH]cc1-c1ccc2c(n1)N(C(=O)Nc1ccccc1)CCO2` [Compound I-188]: the inhibition at 50 µM is at least 95%.

With `CCOC(=O)CCCc1ccc2c(n1)N(C(=O)Nc1ccccc1)CCO2` [Compound I-89], the inhibition at 50 µM was at least 95%. As to `COC(=O)c1ccc(Nc2ccc3c(n2)N(C(=O)Nc2ccccc2)CCO3)c(OCCNC(=O)OC(C)(C)C)c1` [Compound I-216], the inhibition at 50 µM is at least 95%. Then `O=C(Nc1ccccc1)N1CCOc2ccc(Nc3ccccc3)nc21` [Compound I-144], with 81%; and `O=C(Nc1ccccc1)N1CCOc2ccc(-c3cccnc3)nc21` [Compound I-102], with 94%. With `CNC(=O)c1cnc2c(c1)OCCN2C(=O)Nc1ccccc1` [Compound I-303], the inhibition at 50 µM is 89%. Take `O=C(Nc1ccccc1)N1CCOc2cc(Nc3ccc4ncccc4c3)cnc21` [Compound I-316]: the inhibition at 50 µM was 87%. For the molecule `Nc1cnc2c(c1)OCCN2C(=O)Nc1ccccc1` [Compound I-148], the inhibition at 50 µM worked out at 94%. As to `O=C(O)c1cccc(C(=O)Nc2ccc3c(n2)N(C(=O)Nc2ccccc2)CCO3)c1` [Compound I-124], the inhibition at 50 µM is 76%. Then `COCOc1ccc(C(=O)O)cc1NC(=O)c1ccc2c(n1)N(C(=O)Nc1ccccc1)CCO2` [Compound I-218], with 87%; and `CC(=O)Nc1cnc2c(c1)OCCN2C(=O)Nc1ccccc1` [Compound I-173], with at least 95%; and `CC(=O)Nc1ccc2c(n1)N(C(=O)Nc1ccccc1)CCO2` [Compound I-174], with 79%. Take `NCCOc1cc(C(=O)O)ccc1Nc1ccc2c(n1)N(C(=O)Nc1ccccc1)CCO2` [Compound I-227]: the inhibition at 50 µM was at least 95%.

For the molecule `O=C(Nc1ccccc1)N1CCOc2cc(-c3cc[nH]n3)cnc21` [Compound I-269], the inhibition at 50 µM turned out to be 71%.

As for `O=C(Nc1ccccc1)N1CCOc2cc(NCc3ccccc3)cnc21` [Compound I-131], the inhibition at 50 µM was at least 95%. With `O=C(O)CC(=O)Nc1ccc2c(n1)N(C(=O)Nc1ccccc1)CCO2` [Compound I-123] the figure was at least 95%; with `O=C(Nc1ccccc1)N1CCOc2cc(-c3cc4ccccc4[nH]3)cnc21` [Compound I-282], 74%. Take `CC1(Cc2ccccc2)SC(N2CCOc3cccnc32)=NC1=O` (centres unmarked) [Compound I-4]: the inhibition at 50 µM was 84%. Take `CC(C)(C)OC(=O)NCCOc1cccc(Nc2ccc3c(n2)N(C(=O)Nc2ccccc2)CCO3)c1` [Compound I-219]: the inhibition at 50 µM was at least 95%. With `O=C(O)c1ccc(Nc2ccc3c(n2)N(C(=O)Nc2ccccc2)CCO3)nc1` [Compound I-183], the inhibition at 50 µM worked out at 86%.

Regarding `Cn1cc(-c2ccc3c(n2)N(C(=O)Nc2ccccc2)CCO3)cn1` [Compound I-190], the inhibition at 50 µM is at least 95%.

For `NCCOc1ccccc1Nc1ccc2c(n1)N(C(=O)Nc1ccccc1)CCO2` [Compound I-223], the inhibition at 50 µM is at least 95%. On to `O=C(O)c1cccc(NC(=O)c2ccc3c(n2)N(C(=O)Nc2ccccc2)CCO3)c1` [Compound I-126], for which the inhibition at 50 µM was at least 95%. As to `O=C(Nc1ccccc1)N1CCOc2cc(-c3ccc[nH]3)cnc21` [Compound I-274], the inhibition at 50 µM was at least 95%. With `O=C(Nc1ccccc1)N1CCOc2ccc(Nc3ccncc3)nc21` [Compound I-182], the inhibition at 50 µM is at least 95%.

`O=C(Nc1ccccc1)N1CCOc2cc(Nc3ccc(CN4CCS(=O)(=O)CC4)cc3)cnc21` [Compound I-325]: the inhibition at 50 µM turned out to be 82%. On to `O=C(Nc1ccccc1)N1CCOc2ccc(Cc3ccccc3)nc21` [Compound I-87], for which the inhibition at 50 µM amounted to 75%.

For the molecule `O=C(Nc1ccccc1)N1CCOc2ccc(-c3nccs3)nc21` [Compound I-83], the inhibition at 50 µM was determined as 92%. Turning to `O=C(O)c1ccccc1Nc1cnc2c(c1)OCCN2C(=O)Nc1ccccc1` [Compound I-137], the inhibition at 50 µM was at least 95%.

Turning to `CC(C)(C)OC(=O)CNC(=O)c1cccc(Nc2ccc3c(n2)N(C(=O)Nc2ccccc2)CCO3)c1` [Compound I-272], the inhibition at 50 µM is at least 95%. For `S=C(Nc1cccnc1)N1CCOc2cccnc21` [Compound I-5], the inhibition at 50 µM is 90%. With `C#Cc1cccc(Nc2cnc3c(c2)OCCN3C(=O)Nc2ccccc2)c1` [Compound I-314], the inhibition at 50 µM is 78%. As to `NC(=O)c1ccc(-c2ccc3c(n2)N(C(=O)Nc2ccccc2)CCO3)cc1` [Compound I-69], the inhibition at 50 µM came to 73%.

Regarding `COC(=O)c1ccc(Nc2cnc3c(c2)OCCN3C(=O)Nc2ccccc2)cc1OC` [Compound I-327], the inhibition at 50 µM is 86%.

Regarding `COC(=O)c1ccc(-c2ccc(Nc3cnc4c(c3)OCCN4C(=O)Nc3ccccc3)cc2)cc1` [Compound I-321], the inhibition at 50 µM amounted to 76%. With `NCCOc1ccc(C(=O)O)cc1NC(=O)c1ccc2c(n1)N(C(=O)Nc1ccccc1)CCO2` [Compound I-118] the figure was at least 95%. As for `O=C(O)c1ccc(-c2ccc3c(n2)N(C(=O)NCCO)CCO3)cc1` [Compound I-205], the inhibition at 50 µM was at least 95%. For the molecule `C#CCC1(C)SC(N2CCOc3cccnc32)=NC1=O` (centres unmarked) [Compound I-7], the inhibition at 50 µM was found to be 75%. With `CC(C)(C)OC(=O)N1CCN(c2cnc3c(c2)OCCN3C(=O)Nc2ccccc2)CC1` [Compound I-244] the figure was 80%; with `Nc1ccc2c(n1)N(C(=O)Nc1ccccc1)CCO2` [Compound I-108], 88%; with `O=C(O)CCNC(=O)c1cnc2c(c1)OCCN2C(=O)Nc1ccccc1` [Compound I-307], 92%. In the case of `CCOC(=O)CCc1ccc2c(n1)N(C(=O)Nc1ccccc1)CCO2` [Compound I-92], the inhibition at 50 µM is at least 95%. With `Nc1ccc(-c2ccc3c(n2)N(C(=O)Nc2ccccc2)CCO3)cn1` [Compound I-185], the inhibition at 50 µM is 76%. For the molecule `O=C(O)Cc1ccc(Nc2ccc3c(n2)N(C(=O)Nc2ccccc2)CCO3)cc1` [Compound I-225], the inhibition at 50 µM is at least 95%.

As to `O=C(O)c1cccc(-c2ccc3c(n2)N(C(=O)Nc2ccccc2)CCO3)c1` [Compound I-104], the inhibition at 50 µM was at least 95%.

As to `O=C(Nc1ccccc1)N1CCOc2cc(Nc3ccc(Oc4ccccc4)cc3)cnc21` [Compound I-322], the inhibition at 50 µM was determined as 78%.

Consider `CCN(CC)c1cc(F)cc(Nc2cnc3c(c2)OCCN3C(=O)Nc2ccccc2)c1` [Compound I-328], for which the inhibition at 50 µM was found to be 91%.
